Consider 16 molecules from US10828316B2, “Method of treating bacterial infections” (priority 2016, dated 2020).

The subject of one test is S. sonnei APV00908. Description: MIC. Type of test: cell-based. To be noted: for MIC: Shigella sonnei.
A further test deals with S. flexneri APV00906. As to the kind of experiment: MIC. Type of test: cell-based. The conditions noted are these: for MIC: Shigella flexneri.
A further test relates to S. flexneri APV00907. Description: MIC. To be noted: for MIC: Shigella flexneri. Type of test: cell-based.
For another test, the system named is K. pneumoniae EN0262. The conditions noted are these: commercial antibiotics, data provided by IMBIM, BMC, Uppsala University; cited from earlier work.
The test system of the next test is E. coli. The conditions noted are these: Ciprofloxacin 14 mg/kg; single mice.
The mark [1] stands for this setting: S. sonnei APV00908, read-out: Antibiogram MIC.
Where [2] appears, read: S. flexneri APV00906, read-out: Antibiogram MIC.
Setting [3] is: S. flexneri APV00907, read-out: Antibiogram MIC.

≈ marks a conversion by molar mass, not a printed value. Where two headings read alike, the source gives them in different places.

One may read the MIC as the lowest concentration found to suppress growth. Take `C[C@@H](O)[C@H]1C(=O)N2C(C(=O)O)=C(S[C@@H]3CN[C@H](C(=O)Nc4cccc(C(=O)O)c4)C3)[C@H](C)[C@H]12` [Ertapenem]: the MIC in the test on S. sonnei APV00908 (setting [1]), in the test with S. flexneri APV00906 (setting [2]) and in the test on S. flexneri APV00907 (setting [3]) was not above 0.5 µg/mL each time.

As for `O=C1CN(/N=C/c2ccc([N+](=O)[O-])o2)C(=O)N1` [Nitrofurantoin], the MIC in the test on S. sonnei APV00908 (setting [1]), in the test with S. flexneri APV00906 (setting [2]) and in the test on S. flexneri APV00907 (setting [3]) was not above 16 µg/mL in each case.

Turning to `NCC[C@H](O)C(=O)N[C@@H]1C[C@H](N)[C@@H](O[C@H]2O[C@H](CN)[C@@H](O)[C@H](O)[C@H]2O)[C@H](O)[C@H]1O[C@H]1O[C@H](CO)[C@@H](O)[C@H](N)[C@H]1O` [amikacin], the “Antibiogram category (S, I, R, R*)” value in the test with S. sonnei APV00908 (S. sonnei APV00908), with S. flexneri APV00906 (S. flexneri APV00906) and in the test with S. flexneri APV00907 (S. flexneri APV00907) was “R*” in each case. In addition, the MIC in the test on S. sonnei APV00908 (setting [1]) was 4 µg/mL (≈ 6.83 µM); in the test with S. flexneri APV00906 (setting [2]), 16 µg/mL (≈ 27.3 µM); in the test with S. flexneri APV00907 (setting [3]), 4 µg/mL (≈ 6.83 µM); in the test with K. pneumoniae EN0262, 8 µg/mL (≈ 13.7 µM).

For `CC1(C)S[C@@H]2[C@H](NC(=O)[C@H](N)c3ccccc3)C(=O)N2[C@H]1C(=O)O` [ampicillin], in the test on K. pneumoniae EN0262, the MIC was more than 128 µg/mL.

`C[C@H]1[C@H](NC(=O)/C(=N\OC(C)(C)C(=O)O)c2csc(N)n2)C(=O)N1S(=O)(=O)O` [aztreonam]: in the test on K. pneumoniae EN0262, the MIC is more than 16 µg/mL.

As to `CO/N=C(\C(=O)N[C@@H]1C(=O)N2C(C(=O)[O-])=C(C[N+]3(C)CCCC3)CS[C@H]12)c1csc(N)n1` [cefepime], the MIC with S. sonnei APV00908 (setting [1]) was not above 1 µg/mL; in the test with S. flexneri APV00906 (setting [2]) it was 2 µg/mL (≈ 4.16 µM); in the test with S. flexneri APV00907 (setting [3]), not above 1 µg/mL; in the test with K. pneumoniae EN0262 it was more than 16 µg/mL.

As to `CO/N=C(\C(=O)N[C@@H]1C(=O)N2C(C(=O)O)=C(COC(C)=O)CS[C@H]12)c1csc(N)n1` [cefotaxime], the minimal inhibitory concentration (MIC) in the test with S. sonnei APV00908 (APV00908, read-out: Antibiogram MIC) is not above 1 µg/mL; in the test on S. flexneri APV00906 (APV00906, read-out: Antibiogram MIC) it was not below 64 µg/mL; with S. flexneri APV00907 (APV00907, read-out: Antibiogram MIC) it was not above 1 µg/mL; in the test with K. pneumoniae EN0262 it was more than 32 µg/mL.

For the molecule `CC(C)(O/N=C(\C(=O)N[C@@H]1C(=O)N2C(C(=O)[O-])=C(C[n+]3ccccc3)CS[C@H]12)c1csc(N)n1)C(=O)O` [ceftazidime], the MIC with S. sonnei APV00908 (setting [1]) is not above 1 µg/mL; in the test on S. flexneri APV00906 (setting [2]), 16 µg/mL (≈ 29.3 µM); in the test on S. flexneri APV00907 (setting [3]), not above 1 µg/mL; with K. pneumoniae EN0262 it was more than 32 µg/mL.

Take `O=C(O)c1cn(C2CC2)c2cc(N3CCNCC3)c(F)cc2c1=O` [ciprofloxacin]: the minimum inhibitory concentration (MIC) in the test on S. sonnei APV00908 (setting [1]) was not above 0.5 µg/mL; in the test with S. flexneri APV00906 (setting [2]), not above 0.25 µg/mL; with S. flexneri APV00907 (setting [3]) it was not above 0.5 µg/mL; in the test with K. pneumoniae EN0262, more than 2 µg/mL. In the test with E. coli, the score at sampling was found to be 0.

For `C[C@@H](O)[C@H]1C(=O)N2C(C(=O)O)=C(SCCN=CN)C[C@H]12` [imipenem], the MIC in the test on S. sonnei APV00908 (setting [1]), in the test with S. flexneri APV00906 (setting [2]) and in the test on S. flexneri APV00907 (setting [3]) was not above 0.25 µg/mL in each case.

With `C[C@@H](O)[C@H]1C(=O)N2C(C(=O)O)=C(S[C@@H]3CN[C@H](C(=O)N(C)C)C3)[C@H](C)[C@H]12` [meropenem], the minimum inhibitory concentration (MIC) in the test with S. sonnei APV00908 (setting [1]) is not above 0.25 µg/mL; in the test on S. flexneri APV00906 (setting [2]) it was not above 0.25 µg/mL; in the test with S. flexneri APV00907 (setting [3]) it was not above 0.25 µg/mL; in the test on K. pneumoniae EN0262, more than 8 µg/mL.

For `CCN1CCN(C(=O)N[C@@H](C(=O)N[C@@H]2C(=O)N3[C@@H]2SC(C)(C)[C@@H]3C(=O)O)c2ccccc2)C(=O)C1=O` [piperacillin], the MIC in the test on K. pneumoniae EN0262 was more than 256 µg/mL.

Consider `CN(C)c1cc(NC(=O)CNC(C)(C)C)c(O)c2c1C[C@H]1C[C@H]3[C@H](N(C)C)C(O)=C(C(N)=O)C(=O)[C@@]3(O)C(O)=C1C2=O` [tigecycline], for which the MIC in the test with S. sonnei APV00908 (setting [1]) was not above 0.5 µg/mL; in the test on S. flexneri APV00906 (setting [2]), not above 0.5 µg/mL; in the test with S. flexneri APV00907 (setting [3]), not above 0.5 µg/mL; with K. pneumoniae EN0262, 2 µg/mL (≈ 3.41 µM).

Consider colistin, for which the MIC with K. pneumoniae EN0262 was 1 µg/mL.

For the molecule gentamicin, the “Antibiogram MIC” value in the test on S. sonnei APV00908 (S. sonnei APV00908) was not above 1 µg/mL; in the test with S. flexneri APV00906 (S. flexneri APV00906) it was 4 µg/mL; in the test with S. flexneri APV00907 (S. flexneri APV00907), not above 1 µg/mL. For the same molecule, the “Antibiogram category (S, I, R, R*)” value in the test with S. sonnei APV00908 (S. sonnei APV00908), in the test on S. flexneri APV00906 (S. flexneri APV00906) and with S. flexneri APV00907 (S. flexneri APV00907) was “R*” throughout. In addition, in the test with K. pneumoniae EN0262, the MIC is 1 µg/mL.

perfloxacin: the MIC in the test on K. pneumoniae EN0262 is more than 16 µg/mL.
